In patent publication US9957311B2, “Surface-binding peptide” (TIKOMED AB, priority 2013, dated 2018):
“Also recorded” adds a separate entry of the source. Blank lines part the entries; values can stand above or below the substance they belong to.

Tests used:
[1] = Binding of IP-10 derived short peptides to TiO2 P25 particles, absorbance at 206 nm (Experiment 2); conditions: Experiment 2, 50 μg/ml peptide, 25 mg TiO2, 3 h room temperature
Protocol: 5 mg of eleven peptides (Table 2) were dissolved with 1 ml of water for molecular biology (Sigma-Aldrich, St. Louis, Mo., USA). Working solutions of the different peptides were diluted further with phosphate buffered saline (PBS) (PAA Laboratories GmbH, Pasching, Austria) to 50 μg/ml. 25 mg of TiO2 (P25 from Degussa and P90 from Sigma-Aldrich) were used for the studies. Briefly, 250 μl of peptide solution was incubated with 25 mg of TiO2 powder with different particle size (P25 and P90) in an orbital shaker (IKA Vibrax VXR basic, Staufen, Germany) for 3 h at room temperature. Different controls were used and processed in parallel with the other samples: solutions with peptides alone, PBS alone and P25/P90 in PBS. After this time, all the samples were centrifuged at 13.000×g for 3 min at 20° C. 100 μl of the supernatant solution was carefully collected and placed in a 96-well UV plate and read with PowerWave™ microplate spectrophotometer from BioTek. Absorbances at 206 nm and also spectrum curves for each sample were collected and analysed.

[2] = Binding of fluorescent IP-10 short peptides to titanium foils, fluorescence microscope (Experiment 3); conditions: FITC-labeled peptides 50 μg/ml, 8×8 mm Ti foils, 3 h room temperature, FIG. 7
Protocol: 5 mg of the different peptides (Table 3), which were labeled with fluorescein isothiocyanate, were dissolved with 1 ml of water with molecular biology degree (Sigma-Aldrich, St. Louis, Mo., USA). Working solutions of the different peptides were diluted further with PBS (PAA Laboratories GmbH, Pasching, Austria) to 50 μg/ml. Briefly, 500 μl of peptide solution was incubated with 8×8 mm Ti foils (Sigma Aldrich, thickness 0.127 mm, 99.7%, cut into 8×8 mm^2 samples) in an orbital shaker (IKA Vibrax VXR basic, Staufen, Germany) for 3 h at room temperature. Experiments were run in duplicate.
Ti foils were rinsed twice with PBS to remove unbound labeled peptides. Remaining liquid was allowed to dry and samples were put on microscope slides. […] Two images of each surface were taken.

[3] = Binding of IP-10 derived peptides to TiO2 P90, absorbance at 206 nm (Experiment 1); conditions: 50 μg/mL peptide in PBS, 20 mg TiO2 P90, 3 h room temperature, FIG. 3
Protocol: This experiment was conducted to find the exact region of the IP-10 molecule that binds to titanium. In this experiment the effect of TiO2 (diameter ˜14 nm, product number P 90, Aerosil Evonic Ind.) on peptides synthesized from the IP-10 molecule by absorbance measurements using a Spektro U29-10 Hitachi spectrophotometer.
Seventeen different peptides having sequences of various portion of IP-10 were dissolved in water and thereafter diluted to working solution (50 μg/mL) in phosphate buffered saline (PBS), see Table 1 and FIG. 2.
The absorbance of the peptides bound to TiO2 surfaces P90 from Sigma-Aldrich) were measured at 206 nm using a Spektro U29-10 Hitachi spectrophotometer. Briefly, 20 mg TiO2 (P90) was incubated with 250 μl of peptide solution. After 3 h incubation on a shaking device in room temperature, with vortexing every hour, the samples were centrifuged (13 000×g, 3 min) and the supernatant was collected. As a negative control, PBS alone was used and positive control was peptide solution alone. Every sample was made in double and the experiments were repeated.

[4] = Binding of IP-10 derived short peptides to nanoparticles, absorbance at 206 nm (Experiment 7); conditions: 50 μg/ml peptide, 3 h room temperature, FIG. 14; for binding to TiO2 nanoparticles: 25 mg TiO2 21 nm; for binding to SiO2 particles: 25 mg SiO2 10-20 nm
Protocol: Lyophilized peptides were dissolved with water (Sigma, molecular biology degree) to a concentration of 5 mg/ml (Table 6). Working solutions of the different peptides were diluted further with PBS (PAA laboratories) to 50 μg/ml. 25 mg of TiO2 (Titanium(IV) oxide nanopowder, 21 nm particle size, catalog number 718467, Sigma-Aldrich), SiO2 (Silicon dioxide nanopowder, 10-20 nm particle size, catalog number […], Sigma-aldrich), MgO (Magnesium oxide nanopowder, <50 nm particle size, catalog number 549649, Sigma-Aldrich) were used for the studies. Briefly, 250 μl of peptide solution containing 50 μg/ml was incubated with 25 mg of the materials in an orbital shaker for 3 h at room temperature. Different controls were used and processed in parallel with the other samples: solutions with peptides alone, PBS alone and TiO2/SiO2/MgO in PBS. After this time, all the samples were centrifuged at 13.000×g for 3 min at 20° C. 100 μl of the supernatant solution was carefully collected and placed in a 96-well UV plate and read with PowerWave™ microplate spectrophotometer from BioTek. Absorbances at 206 nm and also spectrum curves for each sample were collected and analyzed.

integrin β3 = assay: Immunocytochemistry of integrin β3 in MC3T3-E1 cells on peptide-coated Ti; format: cell-based; conditions: FIG. 12; for integrin β3 staining: after 72 h of culture
Protocol: (§1) Under aseptic conditions, implants were immersed in a 3:7 (v/v) HNO3-DI water solution for 30 min at room temperature. Then, they were rinsed with milliQ water and placed in a covered milliQ water bath for 24 h. Implants were dried with N2 and were placed in a 96-well plates. Then, 200 μl of 50 μg/ml peptide solutions in PBS were added to each implant. Adsorption took place for 24 h at 37° C. in a humidified atmosphere. After 24 h peptide solutions were collected and surfaces were washed with 200 μl of PBS and air-dried in order to perform in vitro experiments.
(§2) MC3T3-E1 cells were routinely cultured at 37° C. in a humidified atmosphere of 5% CO2, and maintained in α-MEM supplemented with 10% FBS and antibiotics (50 IU penicillin/ml and 50 μg streptomycin/ml). 7.0×10^3 cells were seeded on the peptide-coated implants. Trypan blue stain was used to determine total and viable cell number. The same number of cells was cultured in parallel in plastic culture plates in the experiment. All experiments were performed after 4 passages of the MC3T3-E1 cells.
Cells grown for 24 and 72 h on the surfaces were fixed for 15 min with 4% formaldehyde in PBS at room temperature. Cells were incubated with 0.1% Triton X-100 for 5 min, 1% bovine serum albumin for 30 min and then with anti-integrin beta-3 antibody for 1 h at 1:50 dilution in PBS. Then, a Cy3-conjugated goat anti-rabbit IgG was used as secondary antibody for 1.5 h at 1:200 dilution in PBS. For actin cytoskeleton visualization, cells were stained with phalloidin-FITC 5 μg/mL in PBS for 30 min. Cells were washed with PBS and coin-shaped samples were placed on slides. Finally, a drop of Fluoroshield with DAPI was added and cover glasses were mounted on the samples. Two samples of each group were used to perform the experiment and two images of each sample were taken with the confocal microscope (Leica DMI 4000B equipped with Leica TCS SPE laser system).

MC3T3-E1 cells = assay: DNA quantification (cell number) of cells on peptide-coated Ti; format: cell-based; conditions: 48 h culture on Ti coated with 50 μg/ml peptide, FIG. 9
Protocol: as §1, with “Absorption” for “Adsorption”, “cell” for “in vitro”, “experiments. The surfaces were denoted Ti (uncoated Ti), P1 (Ti coated with IP10-RGD), P2 (Ti coated with IP10mut-RGD), P3 (Ti coated with IP10-RGDmut) and P4 (Ti coated with IP10mut-RGDmu).” for “experiments.”
as §2, with “α-minimum essential medium (α-MEM)” for “α-MEM”, “fetal bovine serum (FBS)” for “FBS”, “15” for “4”
Culture media was removed from wells and plates were frozen at −80° C. until the experiment was carried out. At the day of analysis, 100 μl of distilled water were added to each well. Plates were incubated for 1 hour at room temperature. Again, plates were frozen at −80° C. to lysate cells. Plates were thawed until reaching room temperature and 100 μl of Hoechst 33258 at 20 μg/ml in THE buffer were added. Then, 200 μl aliquots were transferred to 96-well fluorescence plates and a spectrophotometer was set to record fluorescence. Relative fluorescence units were correlated with the cell number using a linear standard curve.

binding to TiO2 particles (in words) [1]: very strong binding
Substance: ATMKK (listed as Homo sapiens) [IP1]

Substance: FCSEPKKKMT (IP-10 derived peptide linked to randomized tag sequence) [IP10b]
signal from the fluorescent peptides bound to Ti [2]: lower than for IP10 but higher than for IP10r

binding to TiO2 P90 (percentage of peptides absorbed, ranking) [3]: bound most
Substance: IIATMKKKGEKRCLNPESKA (listed as Homo sapiens) [Peptide 5]

binding to TiO2 P90 (percentage of peptides absorbed, ranking) [3]: bound most
Substance: IKNLLKAVSKERSKRSP (listed as Homo sapiens) [Peptide 6]

binding to TiO2 particles (in words) [1]: very strong binding
Substance: KKGEI (IP-10 derived peptide) [IP5]

binding to TiO2 nanoparticles [4]: higher binding
binding to TiO2 particles (in words) [1]: very strong binding
Substance: KKKGE (listed as Homo sapiens) [IP4]

binding to SiO2 particles [4]: binding
binding to TiO2 nanoparticles [4]: binding
Substance: KRCLN (listed as Homo sapiens) [IPE]

binding to TiO2 nanoparticles [4]: higher binding
binding to TiO2 particles (in words) [1]: very strong binding
Substance: MKKKG (listed as Homo sapiens) [IP3]

Substance: MKKKGEGGGGGGGGRGES (IP-10 derived peptide connected to mutated RGD motif via poly-G-linker) [Peptide P3]
integrin β3 signal (integrin β3; after 24 h of culture): showed integrin β3 signal
integrin β3 staining (integrin β3): no clear staining; also recorded: disappeared

Substance: MTTTGEGGGGGGGGRGDS (Mutated IP-10 derived peptide connected to RGD motif via poly-G-linker) [Peptide P2]
integrin β3 staining (integrin β3): no clear staining

Substance: MTTTGEGGGGGGGGRGES (Mutated IP-10 derived peptide connected to mutated RGD motif via poly-G-linker) [Peptide P4]
number of cells (DNA quantification) (MC3T3-E1 cells): lowest
number of cells (DNA quantification) (MC3T3-E1 cells; listed as double mutant peptide sequence): lastly
integrin β3 staining (integrin β3): no clear staining

signal from the fluorescent peptides bound to Ti [2]: lowest
Substance: PESCF (Randomized tag sequence) [IP10r]

binding to SiO2 particles [4]: binding
binding to TiO2 nanoparticles [4]: binding
Substance: RCLNP (listed as Homo sapiens) [IPF]

binding to TiO2 nanoparticles [4]: higher binding
Substance: TMKKK (listed as Homo sapiens) [IP2]
binding to TiO2 particles (in words) [1]: very strong binding; also recorded: best binding sequence

Substance: TMKKKPESCF (IP-10 derived peptide linked to randomized tag sequence) [IP10a]
signal from the fluorescent peptides bound to Ti [2]: lower than for IP10 but higher than for IP10r
